Measured values: the supplement of paper PMC10307832

How the values were obtained:
Ponatinib = compound: Cc1ccc(C(=O)Nc2ccc(CN3CCN(C)CC3)c(C(F)(F)F)c2)cc1C#Cc1cnc2cccnn12 [Ponatinib]; test: relative viability (nuclei count vs DMSO), 5 days (fraction); higher = more cells survive
Summary of the method: (§1)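 Hoechst staining, done together with fixation and permeabilisation, marked nuclei for 4× imaging and MetaXpress counting. This followed 5 days without medium change after lung cancer cell lines, kept overnight at 37 °C in 1536-well plates, were pinned with five library-drug doses (not always all listed) spaced by √10 on vehicle-anchored plates. Viability is the ratio of treated-well to vehicle-well nuclei, expressed as a median across plates. Plates passed only at control CV below 25% with at least one doubling.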

Pazopanib = compound: Cc1ccc(Nc2nccc(N(C)c3ccc4c(C)n(C)nc4c3)n2)cc1S(N)(=O)=O [Pazopanib]; test: as above
Summary of the method: as §1

Cell Line | relative viability (Ponatinib; 0.002 µM) | relative viability (Ponatinib; 0.006325 µM) | relative viability (Ponatinib; 0.06325 µM) | relative viability (Ponatinib; 0.2 µM) | relative viability (Pazopanib; 0.01 µM) | relative viability (Pazopanib; 0.03162 µM) | relative viability (Pazopanib; 0.1 µM) | relative viability (Pazopanib; 0.3162 µM) | relative viability (Pazopanib; 1 µM)
NCI-H596 | 0.906 | 0.924 | 0.875 | 0.785 | 0.815 | 1.05 | 0.959 | 0.904 | 1.05
NCI-H647 | 0.818 | 1.05 | 1.09 | 0.769 | 0.885 | 1.08 | 0.895 | 0.956 | 1.13
NCI-H650 | 0.791 | 0.848 | 0.858 | 0.896 | 0.801 | 0.982 | 0.916 | 0.948 | 0.946
NCI-H661 | 0.98 | 0.942 | 0.985 | 0.99 | 0.939 | 0.958 | 1.03 | 1 | 0.986
NCI-H727 | 0.883 | 0.855 | 1.2 | 0.872 | 0.841 | 0.907 | 0.91 | 1 | 1.16
NCI-H838 | 0.95 | 1.01 | 0.994 | 0.793 | 0.918 | 1.01 | 0.996 | 1.05 | 1.14
NCI-H1299 | 0.997 | 1.02 | 1.02 | 0.931 | 1.02 | 1.03 | 1.03 | 0.993 | 0.95
NCI-H1355 | 0.923 | 1.02 | 1.11 | 1 | 0.753 | 0.952 | 0.95 | 1 | 1.06
NCI-H1395 | 0.675 | 0.934 | 0.91 | 0.708 | 0.848 | 1.03 | 0.825 | 1.1 | 1.2
NCI-H1437 | 0.945 | 0.983 | 1.01 | 0.926 | 1 | 0.972 | 0.971 | 0.976 | 1.06
NCI-H1563 | 0.935 | 0.959 | 0.99 | 0.815 | 0.85 | 0.997 | 1.02 | 0.996 | 1.07
NCI-H1623 | 0.991 | 1.05 | 1.01 | 0.969 | 0.964 | 0.909 | 0.885 | 1.06 | 0.929
NCI-H1648 | 0.862 | 0.836 | 0.671 | 0.799 | 0.582 | 0.869 | 0.842 | 0.903 | 0.837
NCI-H1650 | 0.915 | 1.05 | 1.22 | 0.891 | 1.05 | 1.02 | 0.954 | 1.12 | 1.16
NCI-H1651 | 0.982 | 1.02 | 1.08 | 0.929 | 0.917 | 1 | 1.01 | 0.956 | 1.01
NCI-H1666 | 0.919 | 0.977 | 1.11 | 1.04 | 0.989 | 1 | 1.01 | 0.976 | 1.07
NCI-H1703 | 0.821 | 0.83 | 0.466 | 0.333 | 0.744 | 0.735 | 0.562 | 0.353 | 0.331
NCI-H1734 | 0.938 | 0.974 | 1 | 0.871 | 0.776 | 1.03 | 1.11 | 1.13 | 1.12
NCI-H1755 | 1.02 | 0.964 | 0.99 | 0.892 | 0.892 | 0.967 | 0.947 | 0.978 | 1.02
